In PMC8949615, “Inhibitory Effect of Polyphenols from the Whole Green Jackfruit Flour against α-Glucosidase, α-Amylase, Aldose Reductase and Glycation at Multiple Stages and Their Interaction: Inhibition Kinetics and Molecular Simulations” (Molecules, 2022):
Several values for one entry are separate records, joined by “and”; a condition that tells them apart may be missing. Equal entries are not always repeated. Marks after values point to notes of the source that are not given here.

Experiments:
[1] = system: HSA/fructose system; experiment: HSA glycation, early stage: fructosamine (NBT test); type: biochemical, human; parameters: dose or concentration left out as unconfirmed
[2] = system: HSA/fructose system; experiment: HSA glycation, intermediate stage: protein carbonyls; type: biochemical, human
[3] = system: HSA/fructose system; experiment: HSA glycation: protein thiol group protection; type: biochemical, human; conditions: for thiol shielding / thiol group protection: 100 µg/mL; for Thiols Group: HSA/fructose
[4] = DPPH radical scavenging activity; conditions: mean ± SE
[5] = ABTS radical scavenging activity; conditions: mean ± SE
[6] = superoxide radical scavenging activity; conditions: mean ± SE
[7] = target: yeast α-glucosidase; type: biochemical; conditions: mean ± SE
[8] = target: T1, α-amylase (Sus scrofa, UniProt P00690); experiment: α-amylase inhibition kinetics (Lineweaver-Burk, secondary plot); type: biochemical, porcine
T1 sequence (P00690 16-511): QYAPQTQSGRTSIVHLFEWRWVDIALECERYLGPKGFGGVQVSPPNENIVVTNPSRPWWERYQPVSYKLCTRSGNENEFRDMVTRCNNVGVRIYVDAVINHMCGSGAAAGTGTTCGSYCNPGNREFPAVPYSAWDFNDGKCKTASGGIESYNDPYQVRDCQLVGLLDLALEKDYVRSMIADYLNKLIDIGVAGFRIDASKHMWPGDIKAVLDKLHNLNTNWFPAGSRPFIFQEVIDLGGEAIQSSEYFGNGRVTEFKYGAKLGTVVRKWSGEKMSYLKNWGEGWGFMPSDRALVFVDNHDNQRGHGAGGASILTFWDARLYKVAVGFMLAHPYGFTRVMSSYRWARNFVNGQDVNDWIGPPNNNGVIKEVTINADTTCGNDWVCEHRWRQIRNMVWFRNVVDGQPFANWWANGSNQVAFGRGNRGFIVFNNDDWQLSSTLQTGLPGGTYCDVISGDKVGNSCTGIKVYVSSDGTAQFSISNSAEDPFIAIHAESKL

[9] = system: α-glucosidase; experiment: α-glucosidase inhibition kinetics (Lineweaver-Burk, secondary plot); type: biochemical, yeast; conditions: for Mode of Inhibition, α-Glucosidase: from double reciprocal plot; for Ki, α-Glucosidase: secondary plot, mean ± SE
[10] = target: T2, aldose reductase (Homo sapiens, UniProt P15121); experiment: aldose reductase inhibition kinetics (Lineweaver-Burk, secondary plot); type: biochemical; conditions: for Mode of Inhibition, Aldose reductase: from double reciprocal plot
[11] = parameters: method as in earlier work; conditions: ref [9] of the supplement, cited from earlier work
[12] = target: T3, type-VI B porcine pancreatic α-amylase (Sus scrofa, UniProt P00690); experiment: α-amylase inhibition assay; type: biochemical; conditions: mean ± SE
T3 sequence (P00690 16-511): T1 sequence (P00690 16-511)

[13] = target: T2, aldose reductase; experiment: aldose reductase inhibition assay; type: biochemical; conditions: mean ± SE

Compound	Fructosamine ([1]; week 1)	Fructosamine ([1]; week 2)	Fructosamine ([1]; week 3)	Protein carbonyl Content ([2]; week 1)	Protein carbonyl Content ([2]; week 2)	Protein carbonyl Content ([2]; week 3)	thiol shielding / thiol group protection [3]	Thiols Group ([3]; week 1)	Thiols Group ([3]; week 2)	Thiols Group ([3]; week 3)	EC50 Radical Scavenging Activities DPPH [4]	EC50 Radical Scavenging Activities ABTS [5]	EC50 Radical Scavenging Activities Superoxide [6]	IC50 α-Glucosidase [7]	Vmax, α-Amylase ([8]; inhibitor at IC40)	Mode of Inhibition, α-Glucosidase [9]	Vmax, α-Glucosidase ([9]; inhibitor at IC20)	Vmax, α-Glucosidase ([9]; inhibitor at IC40)	Vmax, α-Glucosidase ([9]; inhibitor at IC60)	Mode of Inhibition, Aldose reductase [10]	also measured
N=C(N)NN [Aminoguanidine, aminoguanidine, reference compound]	28.50 ± 1.16 ^d mmol/mg Protein	30.00 ± 1.00 ^d mmol/mg Protein	31.75 ± 0.97 ^d mmol/mg Protein	0.64 ± 0.54 ^e nmol/mg protein	0.66 ± 1.05 ^e nmol/mg protein	0.70 ± 1.11 ^e nmol/mg protein	71%	0.95 ± 1.46 ^b nmol/mg protein	1.04 ± 1.00 ^b nmol/mg protein	1.17 ± 0.89 ^b nmol/mg protein											
COc1ccc(O)c(C(C)(C)C)c1 [BHA, butylated hydroxyl anisole, reference compound]											40.25 ± 0.30 ^d μg/mL	31.00 ± 0.55 ^d μg/mL	64.75 ± 0.13 ^d μg/mL								
O=C(O)C=Cc1ccc(O)c(O)c1 [Caffeic acid, 3-(3,4-Dihydroxyphenyl)-2-propenoic acid]	26.82 ± 0.14 ^a mmol/mg Protein	27.06 ± 0.13 ^a mmol/mg Protein	28.02 ± 1.04 ^a mmol/mg Protein	0.49 ± 2.17 ^b nmol/mg protein	0.57 ± 1.25 ^b nmol/mg protein	0.57 ± 2.22 ^b nmol/mg protein	74–83%	0.69 ± 0.55 ^a nmol/mg protein	0.79 ± 0.05 ^a nmol/mg protein	0.80 ± 0.88 ^a nmol/mg protein	18.50 ± 0.08 ^b μg/mL	12.44 ± 1.60 ^b μg/mL	30.13 ± 2.05 ^b μg/mL	8.00 ± 0.40 ^a µg/mL	25.75 10^3(µM/min)^−1	Competitive	39.98 10^3(µM/min)^−1	40.40 10^3(µM/min)^−1	40.37 10^3(µM/min)^−1	Non-competitive	Ki, α-Glucosidase ([9]; listed as CA): 1.03 mg and 0.52 ± 0.02 mg; Vmax, Aldose reductase ([10]; inhibitor at IC20): 13.35 10^3(µM/min)^−1; Vmax, Aldose reductase ([10]; inhibitor at IC40): 10.15 10^3(µM/min)^−1; Vmax, Aldose reductase ([10]; inhibitor at IC60): 5.05 10^3(µM/min)^−1
O=c1c(O)c(-c2ccc(O)c(O)c2)oc2cc(O)cc(O)c12 [Quercetin]																					adverse effects on serum electrolytes, renal, haematological, and liver function blood parameters ([11]; >1000 mg/day for several months): no adverse effects; safety and tolerability in human clinical trials [11]: safe and well-tolerated
COc1cc(C(=O)O)cc(OC)c1O [Syringic acid, 4-Hydroxy-3,5-dimethoxybenzoic acid]	26.30 ± 1.21 ^b mmol/mg Protein	26.99 ± 1.90 ^b mmol/mg Protein	26.41 ± 1.18 ^b mmol/mg Protein	0.49 ± 1.06 ^c nmol/mg protein	0.54 ± 0.62 ^c nmol/mg protein	0.54 ± 1.32 ^c nmol/mg protein	74–83%	0.64 ± 0.62 ^a nmol/mg protein	0.76 ± 0.53 ^a nmol/mg protein	0.78 ± 0.34 ^a nmol/mg protein	16.00 ± 0.13 ^a μg/mL	11.40 ± 2.04 ^a μg/mL	28.00 ± 1.19 ^a μg/mL	7.50 ± 1.05 ^a µg/mL	51.11 10^3(µM/min)^−1	Competitive	33.55 10^3(µM/min)^−1	33.43 10^3(µM/min)^−1	33.79 10^3(µM/min)^−1	Non-competitive	IC50 [12]: 127 µM; IC50 [13]: 15.1 µM; Mode of Inhibition, α-Amylase ([8]; from double reciprocal plot): Competitive; Vmax, α-Amylase ([8]; inhibitor at IC20): 51.10 10^3(µM/min)^−1; Vmax, α-Amylase ([8]; inhibitor at IC60): 50.95 10^3(µM/min)^−1; Ki ([8]; secondary plot, mean ± SE): 6.31 µM; Ki, α-Glucosidase [9]: 0.96 ± 0.22 mg; Ki, α-Glucosidase ([9]; listed as SA): 1.25 mg; Vmax, Aldose reductase ([10]; inhibitor at IC20): 34.47 10^3(µM/min)^−1; Vmax, Aldose reductase ([10]; inhibitor at IC40): 20.05 10^3(µM/min)^−1; Vmax, Aldose reductase ([10]; inhibitor at IC60): 11.50 10^3(µM/min)^−1; Ki ([10]; secondary plot, mean ± SE): 8.28 µM
